Test results published in patent US9802918B2, “Pyridineamine compounds useful as Pim kinase inhibitors” (Incyte Corporation, priority 2015, dated 2017).

Experiments:
Assay type in all cases: biochemical
Pim-2 = Pim-2 (Homo sapiens (Human), UniProt Q9P1W9); assay: Pim-2 kinase assay; details: 1 mM ATP; read-out: Pim2 IC50
Method: Pim-2 kinase assay—20 μL reactions were run in white 384 well polystyrene plates dotted with 0.8 μL compound/DMSO in the assay buffer (50 mM Tris, pH 7.5, 0.01% Tween-20, 5 mM mgCl2, 0.01% BSA, 5 mM DTT), containing […] Fluorescein-labeled CREBtide peptide substrate (Invitrogen PV3508), 1 mM ATP, and 1 nM enzyme (Invitrogen PV3649) for 2 h at 25° C. Reactions were stopped by addition of 10 μL TR-FRET Dilution Buffer (Invitrogen PV3574) with 30 mM EDTA and 1.5 nM LanthaScreen Tb-CREB pSer133 antibody (Invitrogen PV3566). After 30 min. incubation at room temperature, plates were read on a PHERAstar FS plate reader (BMG Labtech).

Pim-3 = Pim-3 (Homo sapiens (Human), UniProt Q86V86); assay: Pim-3 kinase assay; details: 1 mM ATP; read-out: Pim3 IC50
Method: Pim-1 and Pim-3 kinase assays-20 μL reactions were run in white 384 well polystyrene plates dotted with 0.8 μL compound/DMSO in the assay buffer (50 mM Tris, pH 7.5, 0.01% Tween-20, 5 mM mgCl2, 0.01% BSA, 5 mM DTT), containing […] Biotin-labeled BAD peptide substrate (AnaSpec 62269), 1 mM ATP, and 2.5 pM (Pim-1, Invitrogen PV3503) or 1.25 pM (Pim-3, Millipore 14-738) enzyme for 1 h at 25° C. Reactions were stopped by addition of 10 μL STOP Buffer (150 mM Tris, pH=7.5, 150 mM NaCl, 75 mM EDTA, 0.01% Tween-20, 0.3% BSA,) supplemented with Phospho-Bad (Ser112) Antibody (Cell Signaling 9291) diluted 666-fold, and Streptavidin donor beads (PerkinElmer 6760002) along with Protein-A acceptor beads (PerkinElmer 6760137) at 15 μg/mL each. Supplementation of the STOP buffer with beads and stopping the reactions were done under reduced light. Prior to the stopping reactions STOP buffer with beads was preincubated for 1 h in the dark at room temperature. After stopping the reactions, plates were incubated for 1 h in the dark at room temperature before reading on a PHERAstar FS plate reader (BMG Labtech) under reduced light.

Pim-1 = Pim-1 (Homo sapiens (Human), UniProt P11309); assay: Pim-1 kinase assay; details: 1 mM ATP; read-out: Pim1 IC50
Method: Supplementation of the STOP buffer with beads and stopping the reactions were done under reduced light. Prior to the stopping reactions STOP buffer with beads was preincubated for 1 h in the dark at room temperature. After stopping the reactions, plates were incubated for 1 h in the dark at room temperature before reading on a PHERAstar FS plate reader (BMG Labtech) under reduced light.

Pim-2, sequence (Q9P1W9 whole entry): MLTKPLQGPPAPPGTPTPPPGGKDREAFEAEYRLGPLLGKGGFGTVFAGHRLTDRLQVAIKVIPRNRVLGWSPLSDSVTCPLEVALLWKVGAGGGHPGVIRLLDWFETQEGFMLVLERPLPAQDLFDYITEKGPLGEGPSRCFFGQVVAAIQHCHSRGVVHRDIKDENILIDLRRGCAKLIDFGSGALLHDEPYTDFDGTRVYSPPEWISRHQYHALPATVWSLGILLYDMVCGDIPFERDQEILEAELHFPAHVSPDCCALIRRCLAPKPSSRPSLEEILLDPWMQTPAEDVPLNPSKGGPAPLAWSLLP
Pim-1, sequence (P11309 whole entry): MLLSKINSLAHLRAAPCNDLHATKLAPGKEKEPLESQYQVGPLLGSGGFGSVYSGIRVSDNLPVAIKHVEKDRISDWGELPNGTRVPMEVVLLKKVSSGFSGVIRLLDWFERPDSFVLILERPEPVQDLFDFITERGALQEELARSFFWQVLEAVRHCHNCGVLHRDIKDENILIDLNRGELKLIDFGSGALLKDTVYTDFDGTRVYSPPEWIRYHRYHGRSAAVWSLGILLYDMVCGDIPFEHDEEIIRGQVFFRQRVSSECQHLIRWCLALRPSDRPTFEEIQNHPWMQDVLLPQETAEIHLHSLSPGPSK

SMILES | IC50 (Pim-2) [nM] | IC50 (Pim-3) [nM] | IC50 (Pim-1) [nM]
C[C@@H]1C[C@H](N)CN(c2ccncc2NCc2ccc(F)c(-c3ccc4c(c3)NC(=O)C4)n2)C1 [Example 86, 6-{6-[({4-[(3S,5R)-3-Amino-5-methylpiperidin-1-yl]pyridin-3-yl}amino)methyl]-3-fluoropyridin-2-yl}-1,3-dihydro-2H-indol-2-one] | 100 to 1000 | ≤ 10 | < 10
C[C@@H]1C[C@H](N)CN(c2ccnc(F)c2NCc2ccc(F)c(-c3c(F)cccc3F)n2)C1 [Example 110, 4-[(3S,5R)-3-Amino-5-methylpiperidin-1-yl]-N-{[6-(2,6-difluorophenyl)-5-fluoropyridin-2-yl]methyl}-2-fluoropyridin-3-amine] | ≤ 100 | ≤ 10 | < 10
C[C@@H]1C[C@H](N)CN(c2ccncc2NCc2ccc(F)c(-c3c(F)cc(CN4CC[C@@H](F)C4)cc3F)n2)C1 [Example 55, 4-((3S,5R)-3-amino-5-methylpiperidin-1-yl)-N-((6-(2,6-difluoro-4-(((R)-3-fluoropyrrolidin-1-yl)methyl)phenyl)-5-fluoropyridin-2-yl)methyl)pyridin-3-amine] | ≤ 100 | ≤ 10 | < 10
C[C@H]1CN(c2ccncc2NCc2ccc(F)c(-c3c(F)cc(O[C@@H]4CCOC4)cc3F)n2)C[C@@H](N)[C@@H]1O [Example 73, (3R,4R,5S)-3-Amino-1-(3-{[(6-{2,6-difluoro-4-[(3R)-tetrahydrofuran-3-yloxy]phenyl}-5-fluoropyridin-2-yl)methyl]amino}pyridin-4-yl)-5-methylpiperidin-4-ol] | ≤ 100 | ≤ 10 | < 10
C[C@H]1CN(c2ccncc2NCc2ccc(F)c(-c3c(F)cc(CC(C)(C)O)cc3F)n2)C[C@@H](N)[C@@H]1O [Example 12, (3R,4R,5S)-3-Amino-1-{3-[({6-[2,6-difluoro-4-(2-hydroxy-2-methylpropyl)phenyl]-5-fluoropyridin-2-yl}methyl)amino]pyridin-4-yl}-5-methylpiperidin-4-ol] | ≤ 100 | ≤ 10 | < 10
COc1cccc(F)c1-c1nc(CNc2cnccc2N2C[C@H](C)C[C@H](N)C2)ccc1F [Example 20, 4-((3S,5R)-3-Amino-5-methylpiperidin-1-yl)-N-((5-fluoro-6-(2-fluoro-6-methoxyphenyl)pyridin-2-yl)methyl)pyridin-3-amine] | 1000 to 10000 | 10 to 50 | < 10
C[C@@H]1C[C@H](N)CN(c2ccncc2NCc2ccc(F)c(-c3c(F)cc(O[C@@H]4CCOC4)cc3F)n2)C1 [Example 74, 4-[(3S,5R)-3-Amino-5-methylpiperidin-1-yl]-N-[(6-{2,6-difluoro-4-[(3R)-tetrahydrofuran-3-yloxy]phenyl}-5-fluoropyridin-2-yl)methyl]pyridin-3-amine] | ≤ 100 | ≤ 10 | < 10
C[C@H]1CN(c2ccncc2NCc2ccc3ccc(-c4ccn5ccnc5c4)cc3n2)C[C@@H](N)[C@@H]1O [Example 93, (3R,4R,5S)-3-Amino-1-(3-{[(7-imidazo[1,2-a]pyridin-7-ylquinolin-2-yl)methyl]amino}pyridin-4-yl)-5-methylpiperidin-4-ol] | 100 to 1000 | ≤ 10 | < 10
C[C@@H]1C[C@H](N)CN(c2ccncc2NCc2ccc(F)c(-c3c(F)cc(N4CCOCC4)cc3F)n2)C1 [Example 33, 4-((3S,5R)-3-Amino-5-methylpiperidin-1-yl)-N-((6-(2,6-difluoro-4-morpholinophenyl)-5-fluoropyridin-2-yl)methyl)pyridin-3-amine] | ≤ 100 | ≤ 10 | < 10
CC(Nc1cnccc1N1C[C@H](C)C[C@H](N)C1)c1ccc(F)c(-c2c(F)cccc2F)n1 (stereo partly drawn) [Example 111, 4-[(3S,5R)-3-Amino-5-methylpiperidin-1-yl]-N-{1-[6-(2,6-difluorophenyl)-5-fluoropyridin-2-yl]ethyl}pyridin-3-amine] | ≤ 100 | ≤ 10 | < 10
C[C@H]1CN(c2ccncc2NCc2ccc(F)c(-c3c(F)cc(CN4CC[C@H](F)C4)cc3F)n2)C[C@@H](N)[C@@H]1O [Example 47, (3R,4R,5S)-3-amino-1-(3-(((6-(2,6-difluoro-4-(((S)-3-fluoropyrrolidin-1-yl)methyl)phenyl)-5-fluoropyridin-2-yl)methyl)amino)pyridin-4-yl)-5-methylpiperidin-4-ol] | ≤ 100 | ≤ 10 | < 10
C[C@@H]1C[C@H](N)CN(c2ccncc2NCc2ccc(F)c(-c3c(F)ccc(C4(O)CC4)c3F)n2)C1 [Example 11, 1-(3-(6-((4-((3S,5R)-3-Amino-5-methylpiperidin-1-yl)pyridin-3-ylamino)methyl)-3-fluoropyridin-2-yl)-2,4-difluorophenyl)cyclopropanol] | 100 to 1000 | ≤ 10 | < 10
N[C@@H]1CN(c2ccncc2NCc2ccc(F)c(-c3c(F)cccc3F)n2)CC[C@H]1F [Example 90, 4-[(3R,4R)-3-Amino-4-fluoropiperidin-1-yl]-N-{[6-(2,6-difluorophenyl)-5-fluoropyridin-2-yl]methyl}pyridin-3-amine] | 1000 to 10000 | ≤ 10 | < 10
N[C@H]1C[C@@H](C(F)(F)F)CN(c2ccncc2NCc2ccc(F)c(-c3c(F)cc(C4(O)CCC4)cc3F)n2)C1 [Example 7, 1-(4-{6-[({4-[(3S,5R)-3-Amino-5-(trifluoromethyl)piperidin-1-yl]pyridin-3-yl}amino)methyl]-3-fluoropyridin-2-yl}-3,5-difluorophenyl)cyclobutanol] | ≤ 100 | ≤ 10 | < 10
C[C@H]1CN(c2ccncc2NCc2ccc(F)c(-c3c(F)cc(CN4CCOCC4)cc3F)n2)C[C@@H](N)[C@@H]1O [Example 39, (3R,4R,5S)-3-Amino-1-{3-[({6-[2,6-difluoro-4-(morpholin-4-ylmethyl)phenyl]-5-fluoropyridin-2-yl}methyl)amino]pyridin-4-yl}-5-methylpiperidin-4-ol] | ≤ 100 | ≤ 10 | < 10
C[C@@H]1C[C@H](N)CN(c2ccncc2NCc2ccc(F)c(-c3c(F)cncc3F)n2)C1 [Example 21, 4-((3S,5R)-3-Amino-5-methylpiperidin-1-yl)-N-((3,3′,5′-trifluoro-2,4′-bipyridin-6-yl)methyl)pyridin-3-amine] | 100 to 1000 | ≤ 10 | < 10
C[C@H]1CN(c2ccncc2NCc2ccc(F)c(-c3c(F)cc(C(C)(C)C#N)cc3F)n2)C[C@@H](N)[C@@H]1O [Example 24, 2-(4-{6-[({4-[(3R,4R,5S)-3-Amino-4-hydroxy-5-methylpiperidin-1-yl]pyridin-3-yl}amino)methyl]-3-fluoropyridin-2-yl}-3,5-difluorophenyl)-2-methylpropanenitrile] | ≤ 100 | ≤ 10 | < 10
C[C@@H]1C[C@H](N)CN(c2ccncc2NCc2ccc(F)c(-c3c(F)cc4ncccc4c3F)n2)C1 [Example 38, 4-[(3S,5R)-3-Amino-5-methylpiperidin-1-yl]-N-{[6-(5,7-difluoroquinolin-6-yl)-5-fluoropyridin-2-yl]methyl}pyridin-3-amine] | 100 to 1000 | ≤ 10 | < 10
C[C@H]1CN(c2ccncc2NCc2ccc(F)c(-c3c(F)cc(C4(O)CCC4)cc3F)n2)C[C@@H](N)[C@@H]1O [Example 2, (3R,4R,5S)-3-Amino-1-(3-(((6-(2,6-difluoro-4-(1-hydroxycyclobutyl)phenyl)-5-fluoropyridin-2-yl)methyl)amino)pyridin-4-yl)-5-methylpiperidin-4-ol] | ≤ 100 | ≤ 10 | < 10
C[C@H]1CN(c2ccncc2NCc2ccc(F)c(-c3c(F)cc(N4CCOCC4)cc3F)n2)C[C@@H](N)[C@@H]1O [Example 32, (3R,4R,5S)-3-Amino-1-(3-(((6-(2,6-difluoro-4-morpholinophenyl)-5-fluoropyridin-2-yl)methyl)amino)pyridin-4-yl)-5-methylpiperidin-4-ol] | ≤ 100 | ≤ 10 | < 10
